# Biological target: T1, L-CPT1 (Homo sapiens, UniProt P50416)
# T1 construct: made in house; host or cells: Pichia pastoris strain X-33 (pGAPZB/pGAPZA vector), crude cell-free extract
# T1 sequence (P50416 1-773): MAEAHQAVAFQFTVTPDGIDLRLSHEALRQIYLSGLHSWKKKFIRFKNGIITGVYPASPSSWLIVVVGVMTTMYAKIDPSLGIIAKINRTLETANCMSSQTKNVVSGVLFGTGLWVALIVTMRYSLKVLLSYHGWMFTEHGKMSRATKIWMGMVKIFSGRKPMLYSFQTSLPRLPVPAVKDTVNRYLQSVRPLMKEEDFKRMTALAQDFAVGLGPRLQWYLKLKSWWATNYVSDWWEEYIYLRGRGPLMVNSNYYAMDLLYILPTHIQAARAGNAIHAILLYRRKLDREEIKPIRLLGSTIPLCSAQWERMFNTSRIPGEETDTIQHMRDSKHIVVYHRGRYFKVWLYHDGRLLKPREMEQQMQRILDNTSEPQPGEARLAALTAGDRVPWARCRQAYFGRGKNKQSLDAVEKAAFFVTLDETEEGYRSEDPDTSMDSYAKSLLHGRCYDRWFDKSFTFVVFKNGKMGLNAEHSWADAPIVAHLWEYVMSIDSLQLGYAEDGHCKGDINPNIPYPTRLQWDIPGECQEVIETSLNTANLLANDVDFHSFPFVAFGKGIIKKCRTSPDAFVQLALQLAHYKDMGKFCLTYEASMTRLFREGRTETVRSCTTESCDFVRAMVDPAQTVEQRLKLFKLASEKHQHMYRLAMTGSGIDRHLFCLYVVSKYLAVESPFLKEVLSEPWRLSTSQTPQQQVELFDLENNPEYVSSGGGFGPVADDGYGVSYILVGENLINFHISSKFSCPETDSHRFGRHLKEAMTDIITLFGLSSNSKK
# Experiment: CPT activity spectrophotometric assay with DTNB (Ellman's reagent), cell-free extracts of P. pastoris expressing CPT1
# Assay type: biochemical
# Conditions: carnitine 500 μM, palmitoyl-CoA 80 μM, DTNB 300 μM, absorbance at 410 nm, pH 7.4; read-out: L-CPT1 inhibition IC50
# Procedure: The following tests were carried out in order to determine the activity of the compounds of the present invention. Background information on the performed assays can be found in: Jackson et al., 1999, Biochem. J. 341, 483-489 and Jackson et al., 2000, J. Biol. Chem. 275, 19560-19566.
# Human liver and muscle CPT1 cDNAs and rat CPT2 cDNA were subcloned in pGAPZB or pGAPZA, respectively. These plasmids were used to transform P. pastoris strain X-33 via electroporation after the preparation of electrocompetent cells. High copy number clones were selected where necessary using 0.5 or 1 mg/ml Zeocin. Cultures for activity measurements were induced for 16 h in YPD medium (1% yeast extract, 2% peptone, 2% glucose). Crude cell extracts were prepared by disrupting the cells with glass beads or French Press, depending on fermenter sizes. After centrifugation, the cell-free extracts were resuspended in cell breaking buffer (50 mM Tris, pH 7.4, 100 mM KCl, 1 mM EDTA) in the presence of a protease inhibitor cocktail, before aliquoting and freezing at −20° C.
# CPT activity was measured using a spectrophotometric assay using 5,5′-dithio-bis-(2-nitrobenzoic acid) (DTNB) also called Ellman's reagent. The HS-CoA released on the formation of acylcarnitine from carnitine (500 μM) and palmitoyl-CoA (80 μM) reduced DTNB (300 μM) forming 5-mercapto-(2-nitrobenzoic acid) witch absorbed at 410 nm with a molar coefficient extinction of 13600 M^−1·cm^−1. The assay buffer contained 120 mM KCl, 25 mM Tris, pH 7.4, 1 mM EDTA. This assay was used for the identification of selective inhibitors of the liver CPT1 isoform versus the muscle CPT1 and CPT2 isoforms.
row,IC50 [nM],SMILES
1,153,"O=C(O)c1ccc(NC(=O)c2ccc(Cl)c(NS(=O)(=O)c3cccc(Cl)c3)c2)cc1 [Example 21, 4-[4-Chloro-3-(3-chloro-benzenesulfonylamino)-benzoylamino]-benzoic acid]"
2,192,"O=C(O)c1ccc(NC(=O)c2cccc(NS(=O)(=O)c3ccc(Cl)c(Cl)c3)c2)cc1 [Example 5, 4-[3-(3,4-Dichloro-benzenesulfonylamino)-benzoylamino]-benzoic acid]"
3,881,"COc1cc(C(=O)Nc2ccc(C(=O)O)cc2)cc(NS(=O)(=O)c2cc(Cl)cc(Cl)c2)c1OC [Example 32, 4-[3-(3,5-Dichloro-benzenesulfonylamino)-4,5-dimethoxy-benzoylamino]-benzoic acid]"

# Source: patent US7723538B2, “Sulfonamides as L-CPT1 inhibitors” (Hoffmann-La Roche Inc., priority 2005, dated 2010)
